Source: patent publication US8226943B2, “Antibodies to notch receptors” (OncoMed Pharmaceuticals, Inc., priority 2008, dated 2012)
Like-named read-outs stand apart in the source and are kept apart here.

Tests used:
mNotch1 = target: T1, mNotch1 (Mus musculus, UniProt Q01705); test: Biacore affinity, mouse Notch1; format: binding
T1 construct: recombinant human and mouse Notch proteins (EGF10-15 for Notch1, 2, & 4; EGF9-14 for Notch3) were immobilized on a CM5 chip
T1 sequence (Q01705 372-601 limits assumed): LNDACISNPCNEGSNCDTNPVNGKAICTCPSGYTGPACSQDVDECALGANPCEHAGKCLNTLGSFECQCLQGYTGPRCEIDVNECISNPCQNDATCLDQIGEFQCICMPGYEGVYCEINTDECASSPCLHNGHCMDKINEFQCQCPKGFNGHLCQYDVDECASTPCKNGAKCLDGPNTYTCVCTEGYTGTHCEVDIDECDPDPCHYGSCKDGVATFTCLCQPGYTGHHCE
Description: The affinities for human and mouse Notch1, Notch2, Notch3, and Notch4 were determined using a Biacore 2000 instrument. Briefly, recombinant human and mouse Notch proteins (EGF10-15 for Notch1, 2, & 4; EGF9-14 for Notch3) were immobilized on a CM5 chip using standard amine based chemistry (NHS/EDC). For hNotch2, EGF1-12 was also tested for binding. Different antibody concentrations (1-100 nM) were injected over the protein surfaces and kinetic data were collected over time. The data was fit using the simultaneous global fit equation to yield dissociation constants (KD, nM) for each Notch (Table 3).
The sequences of the heavy chain and light chain are provided in SEQ ID NO: 49 and SEQ ID NO:18, respectively. The heavy chain variable region is provided in SEQ ID NO:50 and the light chain variable region is provide SEQ ID NO:13. The heavy chain CDR3 sequence of 59R5 comprises SIFYTT, SEQ ID NO:51. The other CDR sequences of 59R5 are identical to 59R1. […] Both antibodies bind human and murine Notch2 and Notch3 receptors with sub-nanomolar affinity (see Table 6).

C28 colon tumor cells = test: C28 colon tumor xenograft growth; format: in vivo, NOD-SCID mice; conditions: for C28 Tumor vol relative to the control group / growth of C28 colon tumors: 15 mg/kg once per week; for growth of C28 colon tumors: preventative mode
Description: C28 colon tumor cells (10,000 cells per mouse) were injected subcutaneously into the flank region of NOD-SCID mice. Tumors were allowed to grow for 24 days until they had reached an average volume of ˜130 mm^3. Animals were randomized into four treatment groups (n=10/group) and treatments were initiated. One group received a control antibody (1B711) at 10 mg/kg twice per week; one group received irintoecan at 7.5 mg/kg once per week plus the control antibody at 10 mg/kg twice per week; one group received 59R1 at 10 mg/kg twice per week, and the fourth group received the combination of 59R1 at 10 mg/kg twice per week and irinotecan at 7.5 mg/kg once per week. Tumor volumes were measured on the indicated days.
In another embodiment, NOD/SCID mice were injected with C28 colon tumor cells. The mice were treated with anti-Notch2/3 antibody 59R1, anti-Notch2/3 antibody 59R5 or control antibody. Antibodies were dosed at 15 mg/kg once per week in a “preventative” mode where dosing was initiated two days after cell injection.
Tumor volumes and p values for each experiment are shown relative to the control group. The PE13, C28 and Colo205 studies were carried out as described in Example 14. PN8 studies were carried out as described above. For the PN8 experiment, the control is gemcitabine alone and values for 59R1 and 59R5 are the combinations with gemcitabine. Antibodies were dosed once per week at 15 mg/kg for all experiments.

stroma of T1 tumors = test: Microarray gene expression in stroma of treated xenograft tumors, T1; format: in vivo, mice; conditions: 59R1 vs control
PE13 tumors = test: Microarray analysis of 59R1 and 59R5 treated PE13 tumors; format: in vivo, mice; conditions: for Fold Foxc2 / Fold Gzma / Fold Hey2 / Fold Heyl / Fold Mmp9 / Fold Notch3 / Fold Pdcd1lg2 / Fold Rgs4 / Fold Rgs5: treated vs. control, mean of 3 animals per group
Text: The numbers are mean differential expression values for treated vs. control animals, with 3 animals per group.

[1] = test system: breast tumors T1, PE13, and B51; test: Gene Set Enrichment Analysis in treated breast tumors; format: in vivo, mice
Text: Several pathways/gene sets that are regulated by antibody 59R1 in tumor cells were identified (Table 9) using Gene Set Enrichment Analysis (Mootha et al., 2003, Nature Genetics 34:267-73; Subramanian et al., 2005, Proc. Natl. Acad. Sci. USA 102:15545-50) in the breast tumors T1, PE13, and B51.

human Notch2 = human Notch2 (Homo sapiens, UniProt Q04721); test: FACS binding to transiently transfected HEK-293 cells, human Notch2; design: expressed in transfected cells; host or cells: HEK-293, stably transfected
Chain of human Notch2 (Q04721 26-2471): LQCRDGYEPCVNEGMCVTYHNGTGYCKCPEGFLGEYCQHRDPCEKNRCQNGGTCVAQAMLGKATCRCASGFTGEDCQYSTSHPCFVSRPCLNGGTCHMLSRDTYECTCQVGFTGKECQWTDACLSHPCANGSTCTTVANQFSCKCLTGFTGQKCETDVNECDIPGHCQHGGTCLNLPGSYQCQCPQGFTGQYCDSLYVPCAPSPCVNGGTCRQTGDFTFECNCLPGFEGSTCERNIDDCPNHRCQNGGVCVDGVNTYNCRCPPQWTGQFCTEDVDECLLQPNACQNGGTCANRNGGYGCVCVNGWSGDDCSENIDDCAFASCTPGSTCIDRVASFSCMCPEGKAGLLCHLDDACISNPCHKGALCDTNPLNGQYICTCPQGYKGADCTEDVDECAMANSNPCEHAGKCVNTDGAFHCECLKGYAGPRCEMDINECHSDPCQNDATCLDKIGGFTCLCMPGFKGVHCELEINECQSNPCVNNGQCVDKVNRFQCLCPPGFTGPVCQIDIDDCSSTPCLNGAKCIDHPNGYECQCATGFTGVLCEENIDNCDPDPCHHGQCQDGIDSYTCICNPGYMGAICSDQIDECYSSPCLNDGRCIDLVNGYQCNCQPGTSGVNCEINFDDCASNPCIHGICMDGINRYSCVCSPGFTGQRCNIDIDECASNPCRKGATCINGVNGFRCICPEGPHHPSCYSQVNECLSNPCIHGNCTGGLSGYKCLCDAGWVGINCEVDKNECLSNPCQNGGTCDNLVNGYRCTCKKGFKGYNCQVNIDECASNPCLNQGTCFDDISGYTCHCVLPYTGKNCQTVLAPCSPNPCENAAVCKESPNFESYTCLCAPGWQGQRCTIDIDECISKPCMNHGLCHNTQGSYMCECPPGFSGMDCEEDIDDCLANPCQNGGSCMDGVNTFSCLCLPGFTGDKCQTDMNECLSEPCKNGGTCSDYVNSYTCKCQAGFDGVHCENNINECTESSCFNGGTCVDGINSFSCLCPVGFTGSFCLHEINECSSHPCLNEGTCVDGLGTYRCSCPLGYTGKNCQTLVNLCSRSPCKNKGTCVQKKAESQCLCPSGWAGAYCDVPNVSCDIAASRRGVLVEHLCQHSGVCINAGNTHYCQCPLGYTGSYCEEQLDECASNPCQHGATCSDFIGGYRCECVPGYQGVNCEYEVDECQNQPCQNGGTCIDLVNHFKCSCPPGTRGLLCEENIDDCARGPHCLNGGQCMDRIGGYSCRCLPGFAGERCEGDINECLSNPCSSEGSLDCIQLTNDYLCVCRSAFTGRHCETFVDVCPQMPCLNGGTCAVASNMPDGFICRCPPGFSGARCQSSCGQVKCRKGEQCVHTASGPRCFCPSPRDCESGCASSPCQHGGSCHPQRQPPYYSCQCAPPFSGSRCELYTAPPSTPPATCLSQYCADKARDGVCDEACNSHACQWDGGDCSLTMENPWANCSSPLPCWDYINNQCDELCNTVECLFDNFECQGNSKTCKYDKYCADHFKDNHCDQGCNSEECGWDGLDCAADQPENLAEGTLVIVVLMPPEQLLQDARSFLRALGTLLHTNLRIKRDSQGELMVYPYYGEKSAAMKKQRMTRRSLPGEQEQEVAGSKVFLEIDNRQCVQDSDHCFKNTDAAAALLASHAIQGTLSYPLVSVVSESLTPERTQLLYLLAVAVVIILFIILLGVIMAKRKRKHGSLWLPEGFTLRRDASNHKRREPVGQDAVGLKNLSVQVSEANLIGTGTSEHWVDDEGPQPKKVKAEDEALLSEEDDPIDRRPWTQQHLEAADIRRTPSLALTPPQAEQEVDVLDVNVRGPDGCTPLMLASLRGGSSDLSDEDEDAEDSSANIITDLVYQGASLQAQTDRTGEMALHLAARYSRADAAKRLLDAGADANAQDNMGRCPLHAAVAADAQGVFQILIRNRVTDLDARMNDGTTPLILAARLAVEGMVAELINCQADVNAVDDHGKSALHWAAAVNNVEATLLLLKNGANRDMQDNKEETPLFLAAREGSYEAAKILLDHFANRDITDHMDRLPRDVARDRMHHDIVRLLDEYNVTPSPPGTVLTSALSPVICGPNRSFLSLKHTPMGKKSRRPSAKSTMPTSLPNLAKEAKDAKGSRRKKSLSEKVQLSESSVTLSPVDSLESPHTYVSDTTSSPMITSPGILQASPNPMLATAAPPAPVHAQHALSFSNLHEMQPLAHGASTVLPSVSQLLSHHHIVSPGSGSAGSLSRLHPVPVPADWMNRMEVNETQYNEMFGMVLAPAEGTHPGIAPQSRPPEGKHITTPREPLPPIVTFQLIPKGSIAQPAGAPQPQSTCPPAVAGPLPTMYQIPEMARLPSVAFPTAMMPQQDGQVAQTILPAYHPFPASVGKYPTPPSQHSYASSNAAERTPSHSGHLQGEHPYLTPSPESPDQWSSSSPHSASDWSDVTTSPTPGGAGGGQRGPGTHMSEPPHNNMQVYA
Description: The ability of the 59R1 IgG2 antibody to cross-react with other Notch receptors was determined by FACS assay using HEK-293 cells transiently transfected with the human Notch1, Notch2, Notch3 or Notch4 expression plasmid and green fluorescent protein (GFP) as a transfection control. GFP positive cells indicated expression of the transgene. The 59R1 IgG2 was added to the cells at 2 μg/ml and detected by PE-conjugated goat anti-human Fc gamma specific (Jackson Immunochemicals). All Notch constructs were full length.
The binding epitope of 59R5 was determined. As was described in Example 3 for analysis of antibody 59R1, several point mutants were created within full-length Notch1, converting residues within EGF10 to the corresponding amino acids in human Notch 2. Mutants in full-length Notch sequences were generated by QuikChange® mutagenesis (Stratagene) and verified by sequencing. HEK 293 cells were transiently transfected with expression vectors encoding human Notch2, human Notch1, or human Notch1 with residues 382-386 mutated to the corresponding human Notch2 residues. Cells were also co-transfected with a plasmid encoding green fluorescent protein (GFP) to mark those cells that received transfected plasmid. […] 59R1 and 59R5 were detected by PE-conjugated goat anti-human Fc gamma specific antibody (Jackson Immunochemicals, #109-116-170). […]

[2] = Table 6, Biacore, read-out: IgG Dissociation Constant (KD) m-Notch1

59R1: human IgG2 antibody binding Notch2 and Notch3; heavy and light chain SEQ ID NO:16 and 18; ATCC PTA-9547
Kd (mNotch1; Table 3, Biacore, EGF10-15, read-out: Dissociation Constant (KD) mNotch1): > 10 nM | Kd (mNotch1; [2]): > 10 nM | C28 Tumor vol relative to the control group (C28 colon tumor cells): 0.29 | growth of C28 colon tumors (C28 colon tumor cells): inhibited | C28 tumor growth, combination of 59R1 and irinotecan relative to the irinotecan group (C28 colon tumor cells; 59R1 10 mg/kg twice per week and irinotecan 7.5 mg/kg once per week): inhibited | C28 tumor growth, 59R1 alone relative to the control antibody group (C28 colon tumor cells; established tumors, 10 mg/kg twice per week): inhibited | Fold 1416286_at (Rgs4) (stroma of T1 tumors): −1.13 | Fold 1417466_at (Rgs5) (stroma of T1 tumors): −1.99 | Fold 1417714_x_at (Hba-al/Hba-a2) (stroma of T1 tumors): 1.42 | Fold 1418829_a_at (Eno2) (stroma of T1 tumors): 1.29 | Fold 1419302_at (Heyl) (stroma of T1 tumors): −1.07 | Fold 1420872_at (Gucy1b3) (stroma of T1 tumors): −1.01 | Fold 1420941_at (Rgs5) (stroma of T1 tumors): −1.97 | Fold 1420942_s_at (Rgs5) (stroma of T1 tumors): −1.18 | Fold 1421964_at (Notch3) (stroma of T1 tumors): −1.01 | Fold 1422789_at (Aldh1a2) (stroma of T1 tumors): −2.16 | Fold 1428361_x_at (Hba-al/Hba-a2) (stroma of T1 tumors): 1.73 | Fold 1434141_at (Gucy1a3) (stroma of T1 tumors): 1.20 | Fold 1449280_at (Esm1) (stroma of T1 tumors): 1.18 | Fold 1449632_s_at (Fkbp10) (stroma of T1 tumors): 1.07 | Fold 1451501_a_at (Ghr) (stroma of T1 tumors): −1.12 | Fold 1452590_a_at (Plac9) (stroma of T1 tumors): 1.20 | Fold 1459713_s_at (Tmem16a) (stroma of T1 tumors): −2.14 | Fold Foxc2 (PE13 tumors): −5.10 | Fold Gzma (PE13 tumors): 7.42 | Fold Hey2 (PE13 tumors): −4.40 | Fold Heyl (PE13 tumors): −3.33 | Fold Mmp9 (PE13 tumors): −1.92 | Fold Notch3 (PE13 tumors): −2.10 | Fold Pdcd1lg2 (PE13 tumors): 2.36 | Fold Rgs4 (PE13 tumors): −2.71 | Fold Rgs5 (PE13 tumors): −4.32 | cell cycle gene pathways, myc-activating genes and several stem cell gene sets [1]: down-regulated | binding to full-length human Notch2 (FACS) (human Notch2): specifically binds

59R5: human antibody that specifically binds human Notch 2 and human Notch 3; heavy and light chain SEQ ID NO:49 and 18; ATCC PTA-10170
Kd (mNotch1; [2]): > 10 nM | C28 Tumor vol relative to the control group (C28 colon tumor cells): 0.38 | growth of C28 colon tumors (C28 colon tumor cells): inhibited | Notch pathway as measured by gene expression (Foxc2, Hey2, Heyl, Notch3) (PE13 tumors; microarray, p<0.01): significantly inhibited the Notch pathway | Fold Foxc2 (PE13 tumors): −3.00 | Fold Gzma (PE13 tumors): 2.80 | Fold Hey2 (PE13 tumors): −2.46 | Fold Heyl (PE13 tumors): −2.79 | Fold Mmp9 (PE13 tumors): −2.35 | Fold Notch3 (PE13 tumors): −1.86 | Fold Pdcd1lg2 (PE13 tumors): 4.97 | Fold Rgs4 (PE13 tumors): −2.90 | Fold Rgs5 (PE13 tumors): −2.14 | binding to full-length human Notch2 (FACS) (human Notch2): bound
